Earlier results on one molecule are cited in US12290522B2, “Method of treating amyotrophic lateral sclerosis” (Woolsey Pharmaceuticals, Inc., priority 2021, dated 2025).

The conditions of the data set: in vivo; 1-hydroxy metabolite; Shibuya 2001; cited from earlier work.

In the case of `O=S(=O)(c1cccc2c(O)nccc12)N1CCCNCC1` [M3], the half-life result is “about 8 hours”.
